In publication PMC10982999, “Structure-Guided Design and Optimization of Covalent VHL-Targeted Sulfonyl Fluoride PROTACs” (Journal of Medicinal Chemistry, 2024):

How the values were obtained:
physchem = conditions: buffer
Method: Table S1. Sulfonyl fluoride warhead stability for VHL-SF1 and VHL-SF2 was determined in
(1 picture or pasted object on this page, not shown here)

VHL in HEK293T cells = molecular target: T1, VHL in HEK293T cells (Homo sapiens, UniProt P40337); experiment: Gel-based competition pull-down assay from live cells; format: cell-based; conditions: HEK293T cells pretreated 2 h at 37 °C; lysate treated with VHL-SF2-Biotin 50 μM 2 h
T1 construct: endogenous in cells; host or cells: HEK293T
Method: Figure 2 (A) Structure of VHL-SF2. […] (E) Competition pull-down assay from live cells between VHL-SF2-Biotin and VHL-SF2. HEK293T cells were pretreated with DMSO or varying concentrations of VHL-SF2 for 2 h at 37 °C. The cells were lysed and treated with DMSO or VHL-SF2-Biotin (50 μM) for 2 h at room temperature. A pull-down with streptavidin beads was conducted, after which the protein was resolved on SDS/PAGE. VHL and loading control GAPDH levels were visualized by Western blotting.
Initially, we subjected VHL-SF2-Biotin to the streptavidin shift assay and observed a greater extent of VHL modification (44%) than for VHL-SF1-Biotin under the same conditions (Figure S2). […] Intact LC–MS analysis confirmed single labeling of VHL by VHL-SF2, with 65% conversion at 24 h (Figure S5). Although we attempted several site ID identification experiments by digesting the labeled recombinant VHL, the Ser110-containing peptide was not detected in the samples treated with VHL-SF2. This observation is consistent with a change in peptide properties that is incompatible with mass spectrometry detection compared to untreated samples (Table S2). […]
VCB (11.1 mg/ mL) was diluted with PBS pH 7.4 (2 µg/ mL). […] 10 µL of each sample was loaded onto the gel and the bands were quantified […]

Structure (SMILES): Cc1cc([C@H](C(=O)N2C[C@H](S(=O)(=O)F)C[C@H]2C(=O)N[C@@H](CC(=O)OC(C)(C)C)c2ccc(-c3scnc3C)cc2)C(C)C)on1 [VHL-SF2, tert-Butyl (S)-3-((2S,4R)-4-(Fluorosulfonyl)-1-((R)-3-methyl-2-(3-methylisoxazol-5-yl)butanoyl)pyrr-olidine-2-carboxamido)-3-(4-(4-methylthiazol-5-yl)phenyl)propanoate]
- half-life (physchem; pH 4): 38 h
- half-life (physchem; pH 5): 14 h
- half-life (physchem; pH 6): 15 h
- half-life (physchem; pH 7.5): 0.4 h
- pull-down of VHL by VHL-SF2-Biotin after compound pretreatment (VHL in HEK293T cells): dose-dependently competed
